For experiment [1], the system named is ERK phosphorylation in KYSE-520 cells. Nature of the experiment: Phospho-ERK cellular assay. In kind it is cell-based. The following applies: read-out: PERK IC50. The procedure, abridged:
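TR-FRET read-out of ERK1/2 Thr202/Tyr204 phosphorylation was taken after overnight antibody incubation at room temperature. Before that, KYSE-520 cells were treated 2 h at 37 °C with compound dilutions and lysed 30 min. Percent inhibition relative to vehicle and cell-free wells was fitted four-parametrically to give IC50.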

Experiment [2] addresses SHP-2 enzyme (Met1-Leu525) (Homo sapiens (Human), UniProt Q06124). Description: SHP2 inhibition enzymatic assay. In kind it is biochemical. The following applies: 75 μM DiFMUP substrate. The method in brief: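 SHP-2 (Met1-Leu525), 0.5 nM, activated with 500 nM IRS1 bis-phosphopeptide, preincubated 30 min with compounds in HEPES pH 7.2 buffer with 5 mM DTT. 75 μM DiFMUP added for 30 min at room temperature, stopped with bpV; fluorescence read. IC50 from four-parameter logistic fit of % inhibition.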

Setting [3] is: Homo sapiens, KYSE-520, 2 h, KYSE-520 cells, 2 h at 37° C., phospho-ERK1/2 (Thr202/Tyr204) TR-FRET.
Setting [4] is: 0.5 nM SHP-2 activated by 500 nM IRS1 peptide, read-out: SHP2wt-IC50.
Setting [5] is: KYSE-520 cells, 2 h at 37° C., phospho-ERK1/2 (Thr202/Tyr204) TR-FRET.

Where two headings read alike, the source gives them in different places.

Chain of SHP-2 enzyme (Met1-Leu525) (Q06124 1-525): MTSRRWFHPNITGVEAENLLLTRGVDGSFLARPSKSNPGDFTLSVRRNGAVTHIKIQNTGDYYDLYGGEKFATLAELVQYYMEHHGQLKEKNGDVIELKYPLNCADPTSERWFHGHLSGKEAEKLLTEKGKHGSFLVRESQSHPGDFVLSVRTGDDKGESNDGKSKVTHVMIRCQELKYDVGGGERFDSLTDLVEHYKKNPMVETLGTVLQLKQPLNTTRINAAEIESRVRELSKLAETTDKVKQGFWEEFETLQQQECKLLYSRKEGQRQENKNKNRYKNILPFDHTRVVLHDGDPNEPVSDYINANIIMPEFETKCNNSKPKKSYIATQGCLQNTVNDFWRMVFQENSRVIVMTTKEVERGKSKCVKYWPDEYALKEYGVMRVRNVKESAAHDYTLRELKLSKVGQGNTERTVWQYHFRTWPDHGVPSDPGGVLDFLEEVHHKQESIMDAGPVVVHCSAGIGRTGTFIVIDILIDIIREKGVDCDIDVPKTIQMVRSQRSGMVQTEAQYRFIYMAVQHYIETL

Turning to `Cc1csc(C2(CN)C3CCN(c4cnc5c(-c6ccc(S(=O)(=O)F)c7ccccc67)n[nH]c5n4)CC32)n1` (stereo not drawn) [Example 443, 4-(6-(7-(aminomethyl)-7-(4-methylthiazol-2-yl)-3-azabicyclo[4.1.0]heptan-3-yl)-1H-pyrazolo[3,4-b]pyrazin-3-yl)naphthalene-1-sulfonyl fluoride], the IC50 in experiment [1] (Homo sapiens, KYSE-520, 2 h) was under 1000 nM; in experiment [2] (SHP2wt-IC50, 0.5 nM SHP-2 activated by 500 nM IRS1 peptide) it was 500 to 3000 nM.

`Cc1nccc(Sc2ccc3nc(N4CC[C@@H]5[C@H](C4)[C@@]5(CN)c4ccccc4F)cnc3n2)c1F` [Example 419, ((1S,6R,7R)-3-(6-((3-fluoro-2-methylpyridin-4-yl)thio)pyrido[2,3-b]pyrazin-2-yl)-7-(2-fluorophenyl)-3-azabicyclo[4.1.0]heptan-7-yl)methanamine]: the IC50 was under 1000 nM in experiment [1] (setting [3]) and under 500 nM in experiment [2] (setting [4]).

Take `NC[C@]1(c2ccccc2F)[C@@H]2CCN(c3cnc4c(-c5ccc(-c6ccn[nH]6)cc5Cl)n[nH]c4n3)C[C@@H]21` [Example 296, ((1S,6R,7R)-3-(3-(2-chloro-4-(1H-pyrazol-5-yl)phenyl)-1H-pyrazolo[3,4-b]pyrazin-6-yl)-7-(2-fluorophenyl)-3-azabicyclo[4.1.0]heptan-7-yl)methanamine]: the half-maximal inhibitory concentration (IC50) in experiment [1] (setting [3]) was under 1000 nM; in experiment [2] (setting [4]), under 500 nM.

Take `CN1Cc2cc(-c3n[nH]c4nc(N5CC[C@@H]6[C@H](C5)[C@@]6(CN)c5ccccc5F)cnc34)ccc2C1=O` [Example 244, 5-(6-((1S,6R,7R)-7-(aminomethyl)-7-(2-fluorophenyl)-3-azabicyclo[4.1.0]heptan-3-yl)-1H-pyrazolo[3,4-b]pyrazin-3-yl)-2-methylisoindolin-1-one]: the values for the IC50 in experiment [1] (setting [3]) and in experiment [2] (setting [4]) were under 1000 nM and under 500 nM, respectively.

On to `NC[C@]1(c2cccc(F)c2F)[C@@H]2CCN(c3cnc4c(-c5ccc(C(=O)O)c6ncccc56)n[nH]c4n3)C[C@@H]21` [Example 266, 5-(6-((1S,6R,7R)-7-(aminomethyl)-7-(2,3-difluorophenyl)-3-azabicyclo[4.1.0]heptan-3-yl)-1H-pyrazolo[3,4-b]pyrazin-3-yl)quinoline-8-carboxylic acid], for which the values for the IC50 in experiment [1] (setting [3]) and in experiment [2] (setting [4]) were under 1000 nM and under 500 nM, respectively.

For `Cc1csc([C@@]2(CN)[C@@H]3CN(c4cnc5c(-c6ccc(-n7cccn7)cc6Cl)n[nH]c5n4)C[C@@H]32)n1` [Example 283, ((1R,5S,6r)-3-(3-(2-chloro-4-(1H-pyrazol-1-yl)phenyl)-1H-pyrazolo[3,4-b]pyrazin-6-yl)-6-(4-methylthiazol-2-yl)-3-azabicyclo[3.1.0]hexan-6-yl)methanamine], the IC50 was under 1000 nM in experiment [1] (Homo sapiens, KYSE-520 cells, 2 h at 37° C., phospho-ERK1/2 (Thr202/Tyr204) TR-FRET) and under 500 nM in experiment [2] (setting [4]).

`CN(C#N)C(=O)c1ccc(-c2n[nH]c3nc(N4CC[C@@H]5[C@H](C4)[C@@]5(CN)c4ccccc4F)cnc23)c(Cl)c1` [Example 356, 4-(6-((1S,6R,7R)-7-(aminomethyl)-7-(2-fluorophenyl)-3-azabicyclo[4.1.0]heptan-3-yl)-1H-pyrazolo[3,4-b]pyrazin-3-yl)-3-chloro-N-cyano-N-methylbenzamide]: the IC50 was over 5000 nM in experiment [1] (setting [3]) and under 500 nM in experiment [2] (setting [4]).

In the case of `Cc1cc(C2(CN)C3CCN(c4cnc5c(-c6ccc(C#N)c7ncccc67)n[nH]c5n4)CC32)no1` (stereo not drawn) [Example 32, 5-(6-(7-(aminomethyl)-7-(5-methylisoxazol-3-yl)-3-azabicyclo[4.1.0]heptan-3-yl)-1H-pyrazolo[3,4-b]pyrazin-3-yl)quinoline-8-carbonitrile], the results for the IC50 in experiment [1] (setting [3]) and in experiment [2] (setting [4]) were under 1000 nM and under 500 nM, respectively.

Take `Cc1nc(N2CC[C@@H]3[C@H](C2)[C@@]3(CN)c2cc(F)ccc2F)cc(=O)n1-c1cccc(Cl)c1Cl` [Example 411, 6-((1S,6R,7R)-7-(aminomethyl)-7-(2,5-difluorophenyl)-3-azabicyclo[4.1.0]heptan-3-yl)-3-(2,3-dichlorophenyl)-2-methylpyrimidin-4(3H)-one]: the 50% inhibitory concentration (IC50) in experiment [1] (setting [5]) is over 5000 nM; in experiment [2] (setting [4]), over 3000 nM.

As to `CN(C)C(=O)Cn1cc2c(Cl)c(-c3n[nH]c4nc(N5CC[C@@H]6[C@H](C5)[C@@]6(CN)c5ccccc5F)cnc34)ccc2n1` [Example 428], the IC50 in experiment [1] (setting [5]) is under 1000 nM; in experiment [2] (setting [4]), under 500 nM.

As to `Cc1cc([C@@]2(CN)[C@@H]3CCN(c4cnc5c(-c6ccc7c(c6)OC(F)(F)O7)n[nH]c5n4)C[C@@H]32)no1` [Example 37, ((1S,6R,7S)-3-(3-(2,2-difluorobenzo[d][1,3]dioxol-5-yl)-1H-pyrazolo[3,4-b]pyrazin-6-yl)-7-(5-methylisoxazol-3-yl)-3-azabicyclo[4.1.0]heptan-7-yl)methanamine], the IC50 in experiment [1] (setting [3]) was 1000 to 5000 nM; in experiment [2] (setting [4]), under 500 nM.

As for `NC[C@]1(c2cc(F)cc(F)c2)[C@@H]2CCN(c3cnc4c(-c5ccc6c(=O)[nH]ccc6c5F)n[nH]c4n3)C[C@@H]21` [Example 306, 6-(6-((1S,6R,7R)-7-(aminomethyl)-7-(3,5-difluorophenyl)-3-azabicyclo[4.1.0]heptan-3-yl)-1H-pyrazolo[3,4-b]pyrazin-3-yl)-5-fluoroisoquinolin-1(2H)-one], the IC50 is under 1000 nM in experiment [1] (setting [3]) and under 500 nM in experiment [2] (setting [4]).

For `NC[C@]1(c2ccccc2Cl)[C@@H]2CCN(c3cnc4c(-c5ccnc(N)c5Cl)n[nH]c4n3)C[C@@H]21` [Example 181, 4-(6-((1S,6R,7R)-7-(aminomethyl)-7-(2-chlorophenyl)-3-azabicyclo[4.1.0]heptan-3-yl)-1H-pyrazolo[3,4-b]pyrazin-3-yl)-3-chloropyridin-2-amine], the values for the IC50 in experiment [1] (setting [3]) and in experiment [2] (setting [4]) were under 1000 nM and under 500 nM, respectively.

For `Cc1cc([C@@]2(CN)[C@@H]3CCN(c4cnc5c(-c6ccc(C(F)F)c7ncccc67)n[nH]c5n4)C[C@@H]32)no1` [Example 133, ((1S,6R,7S)-3-(3-(8-(difluoromethyl)quinolin-5-yl)-1H-pyrazolo[3,4-b]pyrazin-6-yl)-7-(5-methylisoxazol-3-yl)-3-azabicyclo[4.1.0]heptan-7-yl)methanamine], the IC50 is under 1000 nM in experiment [1] (setting [3]) and under 500 nM in experiment [2] (setting [4]).

For `CCOc1ccc(-c2n[nH]c3nc(N4CC[C@@H]5[C@H](C4)[C@@]5(CN)c4ccccc4F)cnc23)c2cccnc12` [Example 164, ((1S,6R,7R)-3-(3-(8-ethoxyquinolin-5-yl)-1H-pyrazolo[3,4-b]pyrazin-6-yl)-7-(2-fluorophenyl)-3-azabicyclo[4.1.0]heptan-7-yl)methanamine], the IC50 in experiment [1] (setting [3]) was under 1000 nM; in experiment [2] (setting [4]) it was under 500 nM.

Take `NC[C@]1(c2ccccc2F)[C@@H]2CCN(c3cnc4c(-c5cnc6ccccn56)n[nH]c4n3)C[C@@H]21` [Example 224, ((1S,6R,7R)-7-(2-fluorophenyl)-3-(3-(imidazo[1,2-a]pyridin-3-yl)-1H-pyrazolo[3,4-b]pyrazin-6-yl)-3-azabicyclo[4.1.0]heptan-7-yl)methanamine]: the IC50 in experiment [1] (setting [3]) is under 1000 nM; in experiment [2] (setting [4]), under 500 nM.

On to `Cc1cc(C2(CN)C3CCN(c4nc5[nH]nc(-c6ccc7nn(C)cc7c6Cl)c5c(=O)n4C)CC32)no1` (stereo not drawn) [Example 62, 6-(7-(aminomethyl)-7-(5-methylisoxazol-3-yl)-3-azabicyclo[4.1.0]heptan-3-yl)-3-(4-chloro-2-methyl-2H-indazol-5-yl)-5-methyl-1,5-dihydro-4H-pyrazolo[3,4-d]pyrimidin-4-one], for which the IC50 in experiment [1] (setting [3]) was 1000 to 5000 nM; in experiment [2] (setting [4]), under 500 nM.

With `NC[C@]1(c2ccccc2F)[C@@H]2CCN(c3cnc4c(-c5ccc6c(c5)NC(=O)CC6)n[nH]c4n3)C[C@@H]21` [Example 230, 7-(6-((1S,6R,7R)-7-(aminomethyl)-7-(2-fluorophenyl)-3-azabicyclo[4.1.0]heptan-3-yl)-1H-pyrazolo[3,4-b]pyrazin-3-yl)-3,4-dihydroquinolin-2(1H)-one], the values for the half-inhibitory concentration (IC50) in experiment [1] (setting [3]) and in experiment [2] (setting [4]) were under 1000 nM and under 500 nM, respectively.

Regarding `CN(C)Cc1ccc(-c2n[nH]c3nc(N4CC[C@@H]5[C@H](C4)[C@@]5(CN)c4ccccc4F)cnc23)c2cccnc12` [Example 192, 1-(5-(6-((1S,6R,7R)-7-(aminomethyl)-7-(2-fluorophenyl)-3-azabicyclo[4.1.0]heptan-3-yl)-1H-pyrazolo[3,4-b]pyrazin-3-yl)quinolin-8-yl)-N,N-dimethylmethanamine], the values for the IC50 in experiment [1] (setting [3]) and in experiment [2] (setting [4]) were over 5000 nM and under 500 nM, respectively.

`Cc1cc(C2(CN)C3CCN(c4cnc5c(-c6cccc7ncccc67)n[nH]c5n4)CC32)no1` (stereo not drawn) [Example 9, (7-(5-methylisoxazol-3-yl)-3-(3-(quinolin-5-yl)-1H-pyrazolo[3,4-b]pyrazin-6-yl)-3-azabicyclo[4.1.0]heptan-7-yl)methanamine]: the IC50 in experiment [1] (setting [3]) is under 1000 nM; in experiment [2] (setting [4]) it was under 500 nM.

As for `NC[C@]1(c2ccccc2F)[C@@H]2CCN(c3cnc4c(-c5ccc(C(=O)O)c(Cl)c5Cl)n[nH]c4n3)C[C@@H]21` [Example 227, 4-(6-((1S,6R,7R)-7-(aminomethyl)-7-(2-fluorophenyl)-3-azabicyclo[4.1.0]heptan-3-yl)-1H-pyrazolo[3,4-b]pyrazin-3-yl)-2,3-dichlorobenzoic acid], the IC50 in experiment [1] (setting [3]) was over 5000 nM; in experiment [2] (setting [4]) it was under 500 nM.

For orientation: IC50 means the concentration needed to halve the response being measured.

For the origin of these results see patent publication US20240109900A1, “AZABICYCLIC SHP2 INHIBITORS” (IRBM S.P.A., priority 2021, published 2024).
